From ChEMBL document CHEMBL4257490, “Development of a peptide-based bifunctional chelator conjugated to a cytotoxic drug for the treatment of melanotic melanoma” (Medchemcomm, 2018)
Residues, ends and D or L forms follow the SMILES beside them. *: point of attachment. X1 = O=c1nc(N*)ccn1[C@@H]1O[C@H](CO)[C@@H](O)C1(F)F

Assays:
[1] = Drug uptake in urinary bladder of Balb/c mouse allografted with mouse B16F10 cells using 99mTc(CO)3-labeled compound at 4 to 8 MBq, iv measured at 4 hrs by scintigraphic imaging method; format: ADME, organism-based; conditions: in vivo
[2] = Ratio of drug level in tumor to muscle of Balb/c mouse allografted with mouse B16F10 cells using 99mTc(CO)3-labeled compound at 10 to 12 MBq/kg, iv measured at 4 hrs; format: ADME, organism-based, Tumor/tissue; conditions: in vivo
[3] = Drug uptake in intestine of Balb/c mouse allografted with mouse B16F10 cells using 99mTc(CO)3-labeled compound at 10 to 12 MBq/kg, iv measured at 4 hrs; format: ADME, organism-based; conditions: in vivo
[4] = Drug uptake in mouse B16F10 cells using 99mTc(CO)3-labeled compound at 15 to 20 MBq/ml after 30 mins by gamma scintillation counting method; format: ADME, cell-based; conditions: b16-f10, 0.5 h
[5] = Drug uptake in stomach of Balb/c mouse allografted with mouse B16F10 cells using 99mTc(CO)3-labeled compound at 10 to 12 MBq/kg, iv measured at 4 hrs; format: ADME, organism-based; conditions: in vivo
[6] = Hemolytic activity in rat erythrocytes at 100 uM after 1 hr relative to control; format: ADME, cell-based, Erythrocyte; conditions: read-out: Activity
[7] = Drug uptake in spleen of Balb/c mouse allografted with mouse B16F10 cells using 99mTc(CO)3-labeled compound at 10 to 12 MBq/kg, iv measured at 2 hrs; format: ADME, organism-based; conditions: in vivo
[8] = Stability in saline assessed as parent compond remaining using 99mTc(CO)3-labeled compound after 24 hrs by TLC method; format: physicochemical; conditions: read-out: Stability
[9] = Drug uptake in spleen of Balb/c mouse allografted with mouse B16F10 cells using 99mTc(CO)3-labeled compound at 10 to 12 MBq/kg, iv measured at 4 hrs; format: ADME, organism-based; conditions: in vivo
[10] = n-Octanol-phosphate buffer partition co-efficient, log P of 99mTc(CO)3-labeled compound at 2 to 3 KBq after 1 min by gamma scintillation counting method; format: physicochemical
[11] = Drug degradation in histidine solution using 99mTc(CO)3-labeled compound after 24 hrs by TLC method; format: physicochemical; conditions: read-out: Drug degradation
[12] = Drug uptake in blood of Balb/c mouse allografted with mouse B16F10 cells using 99mTc(CO)3-labeled compound at 10 to 12 MBq/kg, iv measured at 2 hrs; format: ADME, organism-based; conditions: in vivo
[13] = Drug uptake in tumor muscle of Balb/c mouse allografted with mouse B16F10 cells using 99mTc(CO)3-labeled compound at 10 to 12 MBq/kg, iv measured at 4 hrs; format: ADME, organism-based; conditions: in vivo
[14] = Ratio of drug level in tumor to blood of Balb/c mouse allografted with mouse B16F10 cells using 99mTc(CO)3-labeled compound at 10 to 12 MBq/kg, iv measured at 2 hrs; format: ADME, organism-based, Tumor/tissue
[15] = Drug uptake in stomach of Balb/c mouse allografted with mouse B16F10 cells using 99mTc(CO)3-labeled compound at 10 to 12 MBq/kg, iv measured at 2 hrs; format: ADME, organism-based; conditions: in vivo
[16] = Drug uptake in heart of Balb/c mouse allografted with mouse B16F10 cells using 99mTc(CO)3-labeled compound at 10 to 12 MBq/kg, iv measured at 2 hrs; format: ADME, organism-based; conditions: in vivo
[17] = Drug uptake in tumor of Balb/c mouse allografted with mouse B16F10 cells using 99mTc(CO)3-labeled compound at 4 to 8 MBq, iv measured at 4 hrs by scintigraphic imaging method; format: ADME, organism-based, Neoplasm; conditions: in vivo
[18] = Drug uptake in lung of Balb/c mouse allografted with mouse B16F10 cells using 99mTc(CO)3-labeled compound at 10 to 12 MBq/kg, iv measured at 4 hrs; format: ADME, organism-based; conditions: in vivo
[19] = Drug uptake in mouse B16F10 cells using 99mTc(CO)3-labeled compound at 15 to 20 MBq/ml after 30 mins by gamma scintillation counting method relative to total added activity; format: ADME, cell-based; conditions: b16-f10, 0.5 h
[20] = Drug uptake in kidney of Balb/c mouse allografted with mouse B16F10 cells using 99mTc(CO)3-labeled compound at 10 to 12 MBq/kg, iv measured at 2 hrs; format: ADME, organism-based; conditions: in vivo
[21] = Ratio of drug level in tumor to muscle of Balb/c mouse allografted with mouse B16F10 cells using 99mTc(CO)3-labeled compound at 10 to 12 MBq/kg, iv measured at 2 hrs; format: ADME, organism-based, Tumor/tissue; conditions: in vivo
[22] = Drug uptake in muscle of Balb/c mouse allografted with mouse B16F10 cells using 99mTc(CO)3-labeled compound at 10 to 12 MBq/kg, iv measured at 4 hrs; format: ADME, organism-based, Muscle tissue; conditions: in vivo
[23] = Drug uptake in urine of Balb/c mouse allografted with mouse B16F10 cells using 99mTc(CO)3-labeled compound at 10 to 12 MBq/kg, iv measured at 2 hrs; format: ADME, organism-based; conditions: in vivo
[24] = Drug uptake in kidney of Balb/c mouse allografted with mouse B16F10 cells using 99mTc(CO)3-labeled compound at 10 to 12 MBq/kg, iv measured at 4 hrs; format: ADME, organism-based; conditions: in vivo
[25] = Drug uptake in intestine of Balb/c mouse allografted with mouse B16F10 cells using 99mTc(CO)3-labeled compound at 10 to 12 MBq/kg, iv measured at 2 hrs; format: ADME, organism-based; conditions: in vivo
[26] = Drug uptake in kidney of Balb/c mouse allografted with mouse B16F10 cells using 99mTc(CO)3-labeled compound at 4 to 8 MBq, iv measured at 4 hrs by scintigraphic imaging method; format: ADME, organism-based; conditions: in vivo
[27] = Drug uptake in liver of Balb/c mouse allografted with mouse B16F10 cells using 99mTc(CO)3-labeled compound at 10 to 12 MBq/kg, iv measured at 2 hrs; format: ADME, organism-based; conditions: in vivo
[28] = Hemolytic activity in rat erythrocytes up to 50 uM after 1 hr relative to control; format: ADME, cell-based, Erythrocyte; conditions: read-out: Activity
[29] = Drug uptake in blood of Balb/c mouse allografted with mouse B16F10 cells using 99mTc(CO)3-labeled compound at 10 to 12 MBq/kg, iv measured at 4 hrs; format: ADME, organism-based; conditions: in vivo
[30] = Drug uptake in gastrointestinal tract of Balb/c mouse allografted with mouse B16F10 cells using 99mTc(CO)3-labeled compound at 4 to 8 MBq, iv measured at 4 hrs by scintigraphic imaging method; format: ADME, organism-based; conditions: in vivo
[31] = Drug uptake in mouse B16F10 cells using 5,6-carboxyfluorescein-labeled compound at 20 ug/ml after 4 hrs by DAPI staining-based fluorescence microscopic method; format: ADME, cell-based; conditions: b16-f10, 4 h
[32] = Drug uptake in urine of Balb/c mouse allografted with mouse B16F10 cells using 99mTc(CO)3-labeled compound at 10 to 12 MBq/kg, iv measured at 4 hrs; format: ADME, organism-based; conditions: in vivo
B16-F10 [33] = experiment: Cytotoxicity against mouse B16F10 cells assessed as decrease in cell viability after 72 hrs by MTT assay; format: functional, cell-based; conditions: B16-F10, 72 h
[34] = Drug uptake in heart of Balb/c mouse allografted with mouse B16F10 cells using 99mTc(CO)3-labeled compound at 10 to 12 MBq/kg, iv measured at 4 hrs; format: ADME, organism-based; conditions: in vivo
[35] = Metabolic stability in rat serum assessed as parent compound remaining using 99mTc(CO)3-labeled compound after 24 hrs by TLC method; format: ADME, cell-free; conditions: read-out: Stability
[36] = Drug uptake in mouse B16F10 cells using 99mTc(CO)3-labeled compound at 15 to 20 MBq/ml after 240 mins by gamma scintillation counting method relative to total added activity; format: ADME, cell-based; conditions: b16-f10, 4 h
B16-F10 [37] = experiment: Ratio of drug uptake in mouse B16F10 cells at 20 ug/ml after 4 hrs by flow cytometric method to drug uptake in mouse B16F10 cells at 20 ug/ml after 30 mins by flow cytometric method; format: ADME, cell-based
[38] = Drug uptake in liver of Balb/c mouse allografted with mouse B16F10 cells using 99mTc(CO)3-labeled compound at 4 to 8 MBq, iv measured at 4 hrs by scintigraphic imaging method; format: ADME, organism-based; conditions: in vivo
[39] = Drug uptake in lung of Balb/c mouse allografted with mouse B16F10 cells using 99mTc(CO)3-labeled compound at 10 to 12 MBq/kg, iv measured at 2 hrs; format: ADME, organism-based; conditions: in vivo
[40] = Ratio of drug level in tumor to blood of Balb/c mouse allografted with mouse B16F10 cells using 99mTc(CO)3-labeled compound at 10 to 12 MBq/kg, iv measured at 4 hrs; format: ADME, organism-based, Tumor/tissue
[41] = Drug uptake in mouse B16F10 cells using 99mTc(CO)3-labeled compound at 15 to 20 MBq/ml after 240 mins by gamma scintillation counting method; format: ADME, cell-based; conditions: b16-f10, 4 h
[42] = Drug uptake in tumor muscle of Balb/c mouse allografted with mouse B16F10 cells using 99mTc(CO)3-labeled compound at 10 to 12 MBq/kg, iv measured at 2 hrs; format: ADME, organism-based; conditions: in vivo
[43] = Drug uptake in liver of Balb/c mouse allografted with mouse B16F10 cells using 99mTc(CO)3-labeled compound at 10 to 12 MBq/kg, iv measured at 4 hrs; format: ADME, organism-based; conditions: in vivo
[44] = Drug uptake in muscle of Balb/c mouse allografted with mouse B16F10 cells using 99mTc(CO)3-labeled compound at 10 to 12 MBq/kg, iv measured at 2 hrs; format: ADME, organism-based, Muscle tissue; conditions: in vivo

Drug uptake [1]: Active
Ratio [2]: 4.89
Drug uptake [3]: 9.06 % ID/g
Drug uptake [4]: 30.45%
Drug uptake [5]: 0.26 % ID/g
Drug uptake [7]: 0.44 % ID/g
remaining at 24 h [8]: ≥ 92%
Drug uptake [9]: 0.26 % ID/g
logP at 1 min [10]: -1.77
degraded at 24 h [11]: 5%
Drug uptake [12]: 1.13 %ID/ml
Drug uptake [13]: 0.83 % ID/g
Kp at 2 h [14]: 0.72
Drug uptake [15]: 0.36 % ID/g
Drug uptake [16]: 0.07 % ID/g
Drug uptake [17]: Not Active
Drug uptake [18]: 0.2 % ID/g
Drug uptake [19]: 2.9%
Drug uptake [20]: 4.44 % ID/g
Ratio [21]: 4.66
Drug uptake [22]: 0.17 % ID/g
Drug uptake [23]: 53.11 %ID/ml
Drug uptake [24]: 3.24 % ID/g
Drug uptake [25]: 7.9 % ID/g
Drug uptake [26]: Active
Drug uptake [27]: 16.89 % ID/g
Drug uptake [29]: 0.88 %ID/ml
Drug uptake [30]: Active
Drug uptake [31]: Active
Drug uptake [32]: 56.11 %ID/ml
Drug uptake [34]: 0.05 % ID/g
remaining at 24 h [35]: ≥ 92%
Drug uptake [36]: 4.99%
Ratio (B16-F10 [37]): 1.8
Drug uptake [38]: Active
Drug uptake [39]: 0.32 % ID/g
Kp at 4 h [40]: 0.94
Drug uptake [41]: 65%
Drug uptake [42]: 0.82 % ID/g
Drug uptake [43]: 14.39 % ID/g
Drug uptake [44]: 0.17 % ID/g
Structure (SMILES): N=C(N)NCCC[C@H](NC(=O)[C@@H](N)Cc1cnc[nH]1)C(=O)NCC(=O)N[C@@H](CC(=O)Nc1ccn([C@@H]2O[C@H](CO)[C@@H](O)C2(F)F)c(=O)n1)C(N)=O (H-HRGD(X1)-NH2)
hemolysis at 1 h, 100 µM [6]: 7 to 9%
hemolysis at 1 h [28]: 5 to 6%
IC50 (B16-F10 [33]): 210 nM
